Patent EP0335292A2, “2,6-Methano-1,3-benzodiazocines, a process for their preparation and their use as medicaments” (HOECHST-ROUSSEL PHARMACEUTICALS INCORPORATED, priority 1988, dated 1989)
Where a name gives a salt, the structure may show the parent alone.

Test system: mice
Experiment: modified phenyl-p-quinone writhing assay in mice (analgesia)
Assay type: in vivo
Conditions: Mus musculus, sc; read-out: Analgesic Activity (Inhibition of Writhing ED₅₀mg/kg,s.c.)
Method: The 2,6-methano-1,3-benzodiazocines of this invention are useful as analgetics due to their ability to alleviate pain in mammals. The procedure employed to determine analgetic activity is a modification of the phenyl-p-quinone writhing assay in mice, a standard assay for analgesia [Proc. Soc. Exptl. Bio. Med., 95 729(1957)]. Pursuant to the modified procedure, phenyl-p-benzoquinone (Eastman, 12.5 mg) is dissolved in 5 ml of 95% ethanol and the solution is diluted to a total volume of 100 ml with distilled water. The solution is administered to the subject mice intraperitoneally at a dose of 10 ml per kg of body weight. A characteristic "writhe", an inward rotation of one or more feet with twisting and turning of the trunk, drawing in of the abdominal wall, lordosis and arching of the back, is produced.
A total of 28 male mice (Charles River, CD-1), weighing 18 to 30 grams, are employed for a time response. The subject animals receive food and water ad libitum. Test compounds are dissolved in distilled water, or suspended in distilled water containing one drop of a suitable surfactant, such as Tween-80.
Four groups of five animals (20 animals) are given the test compound subcutaneously or orally (p.o.) at 15, 30, 45, and 60 minutes prior to administration of the phenyl-p-quinone. A control group (2 animals per group) receive an equal volume of the vehicle. After the administration of the phenyl-p-quinone, the mice are placed separately in one liter beakers, and after five minutes, are observed for ten minutes. The number of writhes for each animal is recorded. The following formula is used to compute the percent inhibition: […]
The time period with the greatest percent of inhibition is considered the peak time. A dose range determination is generally reserved for those compounds which inhibit [formula] writhing by greater than 65-70% at the screening dose. A dose range determination is run in the same manner as the time response except 10 animals per group are tested at the peak time of test drug activity. Fifty animals, four test drug groups, and a vehicle control are employed. Animals are dosed and tested in a randomized manner.

Row | Compound | ED50 [mg/kg]
1 | CC(=O)Oc1ccc2c(c1)C1CCN(C)C(C1)N2C (centres unmarked) [1,2,3,4,5,6-Hexahydro-1,3-dimethyl-2,6-methano-1,3-benzodiazocin-8-ol acetate, fumarate] | 0.74
2 | COc1ccc2c(c1)C1CCN(C)C(C1)N2C (centres unmarked) [1,2,3,4,5,6-Hexahydro-8-methoxy-1,3-dimethyl-2,6-methano 1,3-benzodiazocine] | 10.2
3 | CC(C)=CCN1CCC2(C)c3cc(O)ccc3CC1C2C (centres unmarked) [pentazocine, reference compound] | 1.3
4 | CN1CCC2CC1N(C)c1ccc(O)cc12.O=C(O)/C=C/C(=O)O (centres unmarked) [1,2,3,4,5,6-Hexahydro-1,3-dimethyl-2,6-methano-1,3-benzodiazocin-8-ol fumarate] | 0.7
5 | CN1CCC2CC1N(C)c1c(Br)cc(O)cc12 (centres unmarked) [10-Bromo-1,2,3,4,5,6-hexahydro-1,3-dimethyl-2,6-methano-1,3-benzodiazocin-8-ol, hemi-fumarate] | 1.9
